This is an account of results in patent US11292801B2, “Calpain modulators and therapeutic uses thereof” (Blade Therapeutics, Inc., priority 2016, dated 2022).

The structures appear in SMILES notation. Bounds are passed on as bounds.

The target of one assay is T1, Human Calpain 1/NS1 (Homo sapiens, UniProt P07384).
T1 sequence (P07384 1-714): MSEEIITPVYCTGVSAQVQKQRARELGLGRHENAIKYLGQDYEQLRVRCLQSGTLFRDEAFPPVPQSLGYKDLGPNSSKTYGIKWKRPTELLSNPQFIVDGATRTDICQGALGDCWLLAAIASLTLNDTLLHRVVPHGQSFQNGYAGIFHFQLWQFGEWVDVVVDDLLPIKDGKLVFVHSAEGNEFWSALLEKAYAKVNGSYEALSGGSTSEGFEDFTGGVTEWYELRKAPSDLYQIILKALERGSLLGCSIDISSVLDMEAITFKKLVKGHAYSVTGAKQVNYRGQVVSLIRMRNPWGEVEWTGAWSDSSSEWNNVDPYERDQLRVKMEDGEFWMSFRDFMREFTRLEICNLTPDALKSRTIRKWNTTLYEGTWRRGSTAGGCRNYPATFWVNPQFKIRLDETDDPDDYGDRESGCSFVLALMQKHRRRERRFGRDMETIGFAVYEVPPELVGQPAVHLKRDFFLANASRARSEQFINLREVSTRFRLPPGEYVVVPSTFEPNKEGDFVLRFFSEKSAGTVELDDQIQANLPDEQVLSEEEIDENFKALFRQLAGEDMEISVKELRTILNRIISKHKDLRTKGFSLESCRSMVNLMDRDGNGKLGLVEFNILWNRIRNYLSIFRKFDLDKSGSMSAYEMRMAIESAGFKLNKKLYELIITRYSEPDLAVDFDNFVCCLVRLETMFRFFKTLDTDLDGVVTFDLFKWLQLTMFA
T1 sequence (P04632 1-268 partner): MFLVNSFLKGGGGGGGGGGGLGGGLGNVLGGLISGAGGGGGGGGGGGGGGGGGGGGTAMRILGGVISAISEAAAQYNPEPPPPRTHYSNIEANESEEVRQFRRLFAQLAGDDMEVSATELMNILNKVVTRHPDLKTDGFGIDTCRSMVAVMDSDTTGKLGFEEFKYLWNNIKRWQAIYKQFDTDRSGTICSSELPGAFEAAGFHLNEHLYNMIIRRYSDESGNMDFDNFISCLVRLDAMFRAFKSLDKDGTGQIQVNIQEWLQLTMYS
Briefly: Biochemical inhibition of calpain 1, continuous fluorescence (FRET substrate) assay. As to conditions: mean, read-out: Human Calpain 1/NS1 IC50 (nM)_MEAN. The procedure, abridged:
(§1)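 IC50 values come from 4-parameter fits of progress-curve rates (1-5 min slopes) against log inhibitor concentration. Calpain and inhibitor premixed at ambient 25C in Tris pH ~7.5/NaCl/DTT buffer, then CaCl2 and FRET substrate added to activate; 5-FAM fluorescence (ex 490/em 520) followed 10 min.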

In a further assay the target is T2, Human Calpain 2/NS1 (Homo sapiens, UniProt P17655).
T2 sequence (P17655 1-700): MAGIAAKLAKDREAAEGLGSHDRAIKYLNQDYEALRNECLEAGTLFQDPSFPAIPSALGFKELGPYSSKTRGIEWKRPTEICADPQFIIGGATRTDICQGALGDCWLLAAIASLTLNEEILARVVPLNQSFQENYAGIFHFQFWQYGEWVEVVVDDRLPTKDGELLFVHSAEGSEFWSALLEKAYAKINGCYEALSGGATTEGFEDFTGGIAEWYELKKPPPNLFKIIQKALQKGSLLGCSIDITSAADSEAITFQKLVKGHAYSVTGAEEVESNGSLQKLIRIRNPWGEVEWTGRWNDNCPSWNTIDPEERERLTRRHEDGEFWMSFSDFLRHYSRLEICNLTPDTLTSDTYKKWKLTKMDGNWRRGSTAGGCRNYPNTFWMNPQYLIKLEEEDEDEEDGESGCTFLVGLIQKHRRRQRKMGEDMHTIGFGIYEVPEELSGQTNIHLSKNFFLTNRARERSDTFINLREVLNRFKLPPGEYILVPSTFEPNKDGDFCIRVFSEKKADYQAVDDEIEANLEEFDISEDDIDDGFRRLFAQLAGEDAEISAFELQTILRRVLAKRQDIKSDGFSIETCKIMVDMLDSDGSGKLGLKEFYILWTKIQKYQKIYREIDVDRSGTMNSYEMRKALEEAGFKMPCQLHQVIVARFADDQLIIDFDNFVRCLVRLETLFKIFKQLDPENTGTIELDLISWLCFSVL
T2 sequence (P04632 1-268 partner): T1 sequence (P04632 1-268 partner)
Put plainly: Biochemical inhibition of calpain 2, continuous fluorescence (FRET substrate) assay. The following applies: mean, read-out: Human Calpain 2/NS1 IC50 (nM)_MEAN. Summed up:
as §1

In the next assay the target is T3, Human Calpain 9/NS1 (Homo sapiens, UniProt O14815).
T3 sequence (O14815 1-690): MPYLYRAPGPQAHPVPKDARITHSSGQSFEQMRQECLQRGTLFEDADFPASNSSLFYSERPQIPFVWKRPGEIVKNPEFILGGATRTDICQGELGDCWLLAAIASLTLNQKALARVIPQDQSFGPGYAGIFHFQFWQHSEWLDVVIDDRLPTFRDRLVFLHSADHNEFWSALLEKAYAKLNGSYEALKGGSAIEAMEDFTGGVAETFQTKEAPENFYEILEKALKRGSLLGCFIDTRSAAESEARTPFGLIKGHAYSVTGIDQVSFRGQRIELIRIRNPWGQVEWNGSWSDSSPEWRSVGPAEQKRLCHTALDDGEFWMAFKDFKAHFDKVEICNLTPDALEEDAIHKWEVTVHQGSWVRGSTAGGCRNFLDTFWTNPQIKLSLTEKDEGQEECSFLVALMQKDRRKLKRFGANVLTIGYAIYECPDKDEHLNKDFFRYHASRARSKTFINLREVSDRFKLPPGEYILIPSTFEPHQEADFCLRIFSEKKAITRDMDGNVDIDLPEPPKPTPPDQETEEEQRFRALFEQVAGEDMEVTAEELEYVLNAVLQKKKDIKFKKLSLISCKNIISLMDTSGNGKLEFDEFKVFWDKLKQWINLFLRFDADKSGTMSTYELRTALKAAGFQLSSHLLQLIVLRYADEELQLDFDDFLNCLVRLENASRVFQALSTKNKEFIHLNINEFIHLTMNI
T3 sequence (P04632 1-268 partner): T1 sequence (P04632 1-268 partner)
Briefly: Biochemical inhibition of calpain 9, continuous fluorescence (FRET substrate) assay. As to conditions: mean, read-out: Human Calpain 9/NS1 IC50 (nM)_MEAN. The procedure, abridged:
as §1

With `CCCNC(=O)C(=O)C1CCCCOCCOCc2ccccc2C(=O)N1` (stereo not drawn) [Compound 91, 2-Oxo-2-(12-oxo-1,3,4,6,7,8,9,10,11,12-decahydrobenzo[f][1,4]dioxa[9]azacyclotetradecin-10-yl)-N-propylacetamide], the IC50 on Human Calpain 1/NS1, at Human Calpain 2/NS1 and on Human Calpain 9/NS1 was over 10000 nM throughout.
Consider `O=C[C@@H]1Cc2ccc(cc2)OCCCCOc2cccc(c2)-c2ccn(n2)-c2ncccc2C(=O)N1` [Compound 46, (6S,E)-4-oxo-2^1H-9,14-dioxa-5-aza-3(2,3)-pyridina-2(3,1)-pyrazola-1(1,3),8(1,4)-dibenzenacyclotetradecaphane-6-carbaldehyde], for which the IC50 at Human Calpain 1/NS1, on Human Calpain 2/NS1 and on Human Calpain 9/NS1 was under 3000 nM in each case.
On to `Cc1cc2n(n1)-c1cccc(c1)OCCCCC[C@@H](C(=O)C(N)=O)NC2=O` [Compound 141, (S)-2-oxo-2-(11-oxo-1^1H-3-oxa-10-aza-1(3,4)-pyrazola-2(1,3)-benzena-cycloundecaphane-9-yl)acetamide], for which the IC50 on Human Calpain 1/NS1, on Human Calpain 2/NS1 and on Human Calpain 9/NS1 was under 3000 nM throughout.
With `O=C[C@@H]1Cc2ccc(cc2)OC/C=C/COc2ccc3c(cnn3-c3ncccc3C(=O)N1)c2` [Compound 66, (5S,E)-3-oxo-1^1H-8,13-dioxa-4-aza-1(1,5)-indazola-2(2,3)-pyridina-7(1,4)-benzenacyclotridecaphan-10-ene-5-carbaldehyde], the IC50 at Human Calpain 1/NS1, on Human Calpain 2/NS1 and at Human Calpain 9/NS1 was under 3000 nM throughout.
In the case of `CC(C)NC(=O)C(=O)[C@@H]1CCCCOCCOCc2ccccc2C(=O)N1` [Compound 52, (S)—N-isopropyl-2-oxo-2-(12-oxo-1,3,4,6,7,8,9,10,11,12-decahydrobenzo[f][1,4]dioxa[9]azacyclotetradecin-10-yl)acetamide], the IC50 at Human Calpain 1/NS1, at Human Calpain 2/NS1 and on Human Calpain 9/NS1 was over 10000 nM each time.
`Cc1cccc(Cl)c1CNC(=O)C(=O)C1CCCCOCCOCc2ccccc2C(=O)N1` (stereo not drawn) [Compound 86, N-(2-chloro-6-methylbenzyl)-2-oxo-2-(12-oxo-1,3,4,6,7,8,9,10,11,12-decahydrobenzo[f][1,4]dioxa[9]azacyclotetradecin-10-yl)acetamide]: the IC50 at Human Calpain 1/NS1, at Human Calpain 2/NS1 and at Human Calpain 9/NS1 was over 10000 nM throughout.
For `O=C(NCc1ccccc1Cl)C(=O)C1CCCCOCCOCc2ccccc2C(=O)N1` (stereo not drawn) [Compound 95, N-(2-chlorobenzyl)-2-oxo-2-(12-oxo-1,3,4,6,7,8,9,10,11,12-decahydrobenzo[f][1,4]dioxa[9]azacyclotetradecin-10-yl)acetamide], the IC50 at Human Calpain 1/NS1 was over 10000 nM; at Human Calpain 2/NS1, over 10000 nM; at Human Calpain 9/NS1, under 3000 nM.
Consider `O=C[C@@H]1Cc2ccc(cc2)OCCCCOc2ccc3c(cnn3-c3ncccc3C(=O)N1)c2` [Compound 67, (5S)-3-oxo-1^1H-8,13-dioxa-4-aza-1(1,5)-indazola-2(2,3)-pyridina-7(1,4)-benzenacyclotridecaphane-5-carbaldehyde], for which the IC50 at Human Calpain 1/NS1, on Human Calpain 2/NS1 and on Human Calpain 9/NS1 was under 3000 nM each time.
Regarding `O=C(NCCc1ccc(Cl)cc1)C(=O)[C@@H]1CCCCOCCOCc2ccccc2C(=O)N1` [Compound 128, (S)—N-(4-chlorophenethyl)-2-oxo-2-(12-oxo-1,3,4,6,7,8,9,10,11,12-decahydrobenzo[f][1,4]dioxa[9]azacyclotetradecin-10-yl)acetamide], the IC50 was 3000 to 10000 nM on Human Calpain 1/NS1, under 3000 nM at Human Calpain 2/NS1 and under 3000 nM on Human Calpain 9/NS1.
Take `O=C(NC1CC1)C(=O)[C@@H]1Cc2ccc(cc2)OC/C=C/COc2ccc3c(cnn3-c3ncccc3C(=O)N1)c2` [Compound 69, N-cyclopropyl-2-oxo-2-((5S,E)-3-oxo-1^1H-8,13-dioxa-4-aza-1(1,5)-indazola-2(2,3)-pyridina-7(1,4)-benzenacyclotridecaphan-10-en-5-yl)acetamide]: the figures for the IC50 on Human Calpain 1/NS1, at Human Calpain 2/NS1 and on Human Calpain 9/NS1 were 3000 to 10000 nM, under 3000 nM and under 3000 nM, respectively.
In the case of `O=C(NCc1ccc(Cl)cc1Cl)C(=O)C1CCCCOCCOCc2ccccc2C(=O)N1` (stereo not drawn) [Compound 96, N-(2,4-dichlorobenzyl)-2-oxo-2-(12-oxo-1,3,4,6,7,8,9,10,11,12-decahydrobenzo[f][1,4]dioxa[9]azacyclotetradecin-10-yl)acetamide], the IC50 was over 10000 nM on Human Calpain 1/NS1, over 10000 nM on Human Calpain 2/NS1 and 3000 to 10000 nM on Human Calpain 9/NS1.
Turning to `O=C(NCc1ccncc1)C(=O)C1CCCCOCCOCc2ccccc2C(=O)N1` (stereo not drawn) [Compound 117, 2-Oxo-2-(12-oxo-1,3,4,6,7,8,9,10,11,12-decahydrobenzo[f][1,4]dioxa[9]aza-cyclotetradecin-10-yl)-N-(pyridin-4-ylmethyl)acetamide], the IC50 is over 10000 nM on Human Calpain 1/NS1, 3000 to 10000 nM at Human Calpain 2/NS1 and under 3000 nM at Human Calpain 9/NS1.
For `O=C(NC1CC1)C(=O)[C@@H]1Cc2ccc(cc2)OCCCCOc2ccc3c(cnn3-c3ncccc3C(=O)N1)c2` [Compound 68, N-cyclopropyl-2-oxo-2-((5S)-3-oxo-1^1H-8,13-dioxa-4-aza-1(1,5)-indazola-2(2,3)-pyridina-7(1,4)-benzenacyclotridecaphane-5-yl)acetamide], in that order: under 3000 nM, under 3000 nM and under 3000 nM.
Turning to `O=C[C@@H]1C/C=C\COCCOCc2ccccc2C(=O)N1` [Compound 1, (S,Z)-12-Oxo-1,3,4,6,9,10,11,12-octahydrobenzo[f][1,4]dioxa[9]azacyclo-tetradecine-10-carbaldehyde], the IC50 is over 10000 nM on Human Calpain 1/NS1, under 3000 nM at Human Calpain 2/NS1 and under 3000 nM on Human Calpain 9/NS1.
For the molecule `O=C(NC1CC1)C(=O)[C@@H]1Cc2ccc(cc2)OCCCCOc2cccc(c2)-c2ccn(n2)-c2ncccc2C(=O)N1` [Compound 72, N-cyclopropyl-2-oxo-2-((6S,E)-4-oxo-2^1H-9,14-dioxa-5-aza-3(2,3)-pyridina-2(3,1)-pyrazola-1(1,3),8(1,4)-dibenzenacyclotetradecaphane-6-yl)acetamide], the IC50 at Human Calpain 1/NS1, at Human Calpain 2/NS1 and at Human Calpain 9/NS1 was under 3000 nM each time.
